Measured values published in US20230031406A1, “COMPOUNDS AND COMPOSITIONS FOR TREATING CONDITIONS ASSOCIATED WITH NLRP ACTIVITY” (Novartis AG, priority 2018, published 2023).
pIC50: −log10 of the molar value. Where two headings read alike, the source gives them in different places. Each block holds one molecule with its values, some of them ahead of it.

Tested on: PMA-differentiated THP-1 cells
Test: IL-1β production in PMA-differentiated THP-1 cells stimulated with gramicidin (hTHP-1 assay containing 2% fetal bovine serum; Procedures 1 and 2)
Type: cell-based, human
Details: 2% fetal bovine serum
Outline: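 IL-1β release from PMA-differentiated THP-1 macrophage-like cells was triggered by 5 μM gramicidin for 2 h after 1 h compound exposure, then measured by HTRF.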

[1] = Table B3, hTHP-1 assay, class symbols, read-out: IC50
[2] = Homo sapiens, THP-1, Table B3, hTHP-1 assay, class symbols, read-out: IC50
[3] = Homo sapiens, THP-1, Table B2, class symbols, read-out: hTHP-1 IC50
[4] = Homo sapiens, THP-1, Table B4, class symbols, read-out: hTHP-1 IC50
[5] = Table B2, class symbols, read-out: hTHP-1 IC50
[6] = Table B1, class symbols, read-out: Average IC50 of compounds in hTHP-1 assay: hTHP-1 IC50
[7] = Table B4, class symbols, read-out: hTHP-1 IC50
[8] = Homo sapiens, THP-1, Table B1, class symbols, read-out: Average IC50 of compounds in hTHP-1 assay: hTHP-1 IC50

SMILES: CC(C)(O)c1ccnc(S(N)(=O)=NC(=O)Nc2c3c(nc4c2CCC4(C)C)CCC3)c1 (single isomer, unassigned) [Compound 620b, (R) or (S)-N′-((3,3-dimethyl-1,2,3,5,6,7-hexahydrodicyclopenta [b,e]pyridin-8-yl)carbamoyl)-4-(2-hydroxypropan-2-yl)pyridine-2-sulfonimidamide]
pIC50 [3]: 5.30 to 6.00

SMILES: N[S@@](=O)(=NC(=O)Nc1c2c(nc(C3CC3)c1C1CC1)CCC2)c1ccn(C(F)F)n1 [Compound 728b]
pIC50 [3]: 6.00 to 6.70

SMILES: Cc1c(C(F)(F)F)nc2c(c1NC(=O)N=S(N)(=O)c1cnc(C(C)(C)O)s1)CCC2C (single isomer, unassigned) [Compound 608c]
pIC50 [5]: 6.00 to 6.70

SMILES: CC(C)(O)c1cc(F)c(S(N)(=O)=NC(=O)Nc2c3c(nc4c2CCC4(C)C)CCC3)s1 (single isomer, unassigned) [Compound 102b, (R) or (S)-N′-((3,3-dimethyl-1,2,3,5,6,7-hexahydro-dicyclopenta[b,e]pyridin-8-yl)carbamoyl)-3-fluoro-5-(2-hydroxy-propan-2-yl)thiophene-2-sulfonimidamide]
pIC50 [6]: 7.40 to 8.10

SMILES: CC(C)n1nc(S(N)(=O)=NC(=O)Nc2c3c(nc4c2CCC4(C)C)CCC3)cc1CO (centres unmarked) [Compound 652, N′-((3,3-dimethyl-1,2,3,5,6,7-hexahydrodicyclopenta[b,e]pyridin-8-yl)carbamoyl)-5-(hydroxymethyl)-1-isopropyl-1H-pyrazole-3-sulfonimidamide]
pIC50 [3]: 5.30 to 6.00

SMILES: Cc1c(C(F)(F)F)nc2c(c1NC(=O)N=S(N)(=O)c1cnc(C(C)(O)CO)s1)CCC2 (single isomer, unassigned) [Compound 605b, (R, R) and (S, R) or (R, S) and (S, S)-2-(l,2-Dihydroxypropan-2-yl)-N′-((3-methyl-2-(trifluoromethyl)-6,7-dihydro-5H-cyclopenta[b]pyridin-4-yl)carbamoyl) thiazole-5-sulfonimidamide]
pIC50 [5]: 6.00 to 6.70

SMILES: CC(C)c1nc2c(cc1NC(=O)N=[S@@](N)(=O)c1cnc(C(C)(C)O)s1)CCC2 [Compound 601b]
pIC50 [3]: 4.52 to 5.30

SMILES: CCn1cc(F)c(S(N)(=O)=NC(=O)Nc2c3c(nc(C4CC4)c2C2CC2)CCC3)n1 (centres unmarked) [Example 618, N′-((2,3-dicyclopropyl-6,7-dihydro-5H-cyclopenta[b]pyridin-4-yl)carbamoyl)-1-ethyl-4-fluoro-1H-pyrazole-3-sulfonimidamide]
pIC50 [2]: 6.70 to 7.40

SMILES: CC(C)(O)c1ncc(S(N)(=O)=NC(=O)Nc2c3c(nc4c2CCC4F)CCC3)s1 (single isomer, unassigned) [Compound 183a, (R,R) or (R,S)-N′-((3-fluoro-1,2,3,5,6,7-hexahydrodicyclo-penta[b,e]pyridin-8-yl)carbamoyl)-2-(2-hydroxypropan-2-yl)thiazole-5-sulfonimidamide]
pIC50 [6]: 5.30 to 6.00

SMILES: CC1CCc2c1nc1c(c2NC(=O)N=S(N)(=O)c2cc(C(C)(C)O)cs2)CCC1C (centres unmarked) [131f^]
pIC50 [6]: 5.30 to 6.00

SMILES: CC1(C)Cc2nc3c(c(NC(=O)N=S(N)(=O)c4cnc(C(C)(C)O)s4)c2C1)CCC3 (centres unmarked) [Compound 147, N′-((2,2-dimethyl-1,2,3,5,6,7-hexahydrodicyclopenta[b,e]pyridin-8-yl)carbamoyl)-2-(2-hydroxypropan-2-yl)thiazole-5-sulfonimidamide]
pIC50 [8]: 4.52 to 5.30

SMILES: CC(C)(O)c1csc(S(N)(=O)=NC(=O)Nc2c3c(nc4c2CCC4(C)C)CCC3)c1 (centres unmarked) [Compound 127, N′-((3,3-dimethyl-1,2,3,5,6,7-hexahydrodicyclopenta[b,e]pyridin-8-yl)carbamoyl)-4-(2-hydroxypropan-2-yl)thiophene-2-sulfonimidamide]
pIC50 [8]: 6.70 to 7.40

SMILES: CC1CCc2c1nc1c(c2NC(=O)N=S(N)(=O)c2cc(C(C)(C)O)cs2)CCC1C (single isomer, unassigned) [Compound 131d, (S,R,R) or (S,S,S) or (S,R,S) and (S,S,R)-N′-((3,5-dimethyl-1,2,3,5,6,7-hexa-hydrodicyclopenta[b,e]pyridin-8-yl)carbamoyl)-4-(2-hydroxypropan-2-yl)thio-phene-2-sulfonimidamide]
pIC50 [6]: 4.52 to 5.30

SMILES: C[C@@H]1CCc2c1nc1c(c2NC(=O)N=S(N)(=O)c2ccn(-c3ccccc3)n2)CCC1 (some centres unmarked) [Compound 646a]
pIC50 [3]: 5.30 to 6.00

SMILES: Cc1c(C(F)(F)F)nc2c(c1NC(=O)N=S(N)(=O)c1nn(C(F)F)cc1F)CCC2 (single isomer, unassigned) [Example 563]
pIC50 [1]: 4.52 to 5.30

SMILES: Cc1c(C(C)C)nc2c(c1NC(=O)N=S(N)(=O)c1sc(C(C)(C)O)cc1F)CCC2 (centres unmarked) [Compound 645, 3 -Fluoro-5-(2-hydroxypropan-2-yl)-N′-((2-isopropyl-3-methyl-6,7-dihydro-5H-cyclopenta[b]pyridin-4-yl)carbamoyl)thiophene-2-sulfonimidamide]
pIC50 [3]: 6.70 to 7.40

SMILES: Cc1c(C(F)(F)F)nc2c(c1NC(=O)N=[S@](N)(=O)c1cnc(C(C)(C)O)s1)CC[C@H]2C [Compound 608b]
pIC50 [3]: 4.52 to 5.30

SMILES: CC(C)(O)c1ccc(S(N)(=O)=NC(=O)Nc2c3c(nc4c2CCC4(C)C)CCC3)cn1 (centres unmarked) [Compound 673, N′-((3,3-dimethyl-1,2,3,5,6,7-hexahydrodicyclopenta[b,e]pyridin-8-yl)carbamoyl)-6-(2-hydroxypropan-2-yl)pyridine-3-sulfonimidamide]
pIC50 [3]: 4.52 to 5.30

More lines, now with the values ahead:

pIC50 [1]: 4.52 to 5.30
SMILES: CC(C)(O)c1csc(S(N)(=O)=NC(=O)Nc2c3c(nc(C(F)(F)F)c2C2CC2)CCC3)c1 (single isomer, unassigned) [Example 645, (S) or (R)-N′-((3-cyclopropyl-2-(trifluoromethyl)-6,7-dihydro-5H-cyclopenta[b]pyridin-4-yl)carbamoyl)-4-(2-hydroxypropan-2-yl) thiophene-2-sulfonimidamide]

pIC50 [2]: 6.00 to 6.70
SMILES: CCn1nc(S(N)(=O)=NC(=O)Nc2c3c(nc4c2CCC4(C)C)CCC3)cc1CO (single isomer, unassigned) [Example 726, (R) or (S)-N′-((3,3-dimethyl-1,2,3,5,6,7-hexahydrodicyclopenta[b,e]pyridin-8-yl)carbamoyl)-1-ethyl-5-(hydroxymethyl)-1H-pyrazole-3-sulfonimidamide]

pIC50 (Homo sapiens, THP-1, Table B3, hTHP-1 assay, numeric values, read-out: IC50): < 4.52
SMILES: Cc1c(CC(F)(F)F)nc2c(c1NC(=O)N=S(N)(=O)c1nn(C(F)F)cc1F)CCC2 (single isomer, unassigned) [Example 724, (S) or (R)-1-(difluoromethyl)-4-fluoro-N′-((3-methyl-2-(2,2,2-trifluoroethyl)-6,7-dihydro-5H-cyclopenta[b]pyridin-4-yl)carbamoyl)-1H-pyrazole-3-sulfonimidamide]

pIC50 [4]: 6.00 to 6.70
SMILES: CC(C)n1cc(F)c(S(N)(=O)=NC(=O)Nc2c3c(nc4c2CCC4)CCC3)n1 (centres unmarked) [Example 750, 4-Fluoro-N′-((1,2,3,5,6,7-hexahydrodicyclopenta[b,e]pyridin-8-yl)carbamoyl)-1-isopropyl-1H-pyrazole-3-sulfomidamide]

pIC50 [1]: 5.30 to 6.00
SMILES: CCc1c(C(F)(F)F)nc2c(c1NC(=O)N=S(N)(=O)c1nn(C(F)F)cc1F)CCC2 (single isomer, unassigned) [Example 709, (R) or (S)-1-(difluoromethyl)-N′-((3-ethyl-2-(trifluoromethyl)-6,7-dihydro-5H-cyclopenta[b]pyridin-4-yl)carbamoyl)-4-fluoro-1H-pyrazole-3-sulfonimidamide]

pIC50 [7]: 4.52 to 5.30
SMILES: NS(=O)(=NC(=O)Nc1c2c(nc(C3CC3)c1C1CC1)CCC2)c1nn(C(F)F)cc1F (single isomer, unassigned) [Example 764, (S) or (R)-N′-((2,3-dicyclopropyl-6,7-dihydro-5H-cyclopenta[b]pyridin-4-yl)carbamoyl)-1-(difluoromethyl)-4-fluoro-1H-pyrazole-3-sulfonimidamide]

pIC50 [2]: 5.30 to 6.00
SMILES: CC(C)(O)c1csc(S(N)(=O)=NC(=O)Nc2cc(C(F)(F)F)nc3c2CCC3)c1 (single isomer, unassigned) [Example 667, (R) or (S)-4-(2-hydroxypropan-2-yl)-N′-((2-(trifluoromethyl)-6,7-dihydro-5H-cyclopenta[b]pyridin-4-yl)carbamoyl)thiophene-2-sulfonimidamide]

pIC50 [4]: 5.30 to 6.00
SMILES: CC1CCc2c1nc1c(c2NC(=O)N=S(N)(=O)c2cnc(C(O)CO)s2)CCC1 (centres unmarked) [Example 752, 2-(1,2-Dihydroxyethyl)-N′-((3-methyl-1,2,3,5,6,7-hexahydrodicyclopenta[b,e]pyridin-8-yl)carbamoyl) thiazole-5-sulfonimidamide]

pIC50 (Homo sapiens, THP-1, Table B4, numeric bounds, read-out: hTHP-1 IC50): < 4.52
SMILES: NS(=O)(=NC(=O)Nc1c2c(nc3c1CCC3)CCC2)c1nn(C(F)F)cc1F (single isomer, unassigned) [Example 760, (S) or (R)-1-(difluoromethyl)-4-fluoro-N′-((1,2,3,5,6,7-hexahydrodicyclopenta[b,e]pyridin-8-yl)carbamoyl)-1H-pyrazole-3-sulfonimidamide]

pIC50 [7]: 5.30 to 6.00
SMILES: CC(C)n1cc(F)c(S(N)(=O)=NC(=O)Nc2c3c(nc4c2CC[C@H]4C)CCC3)n1 (single isomer, unassigned) [Example 758, (S) or (R)-4-fluoro-1-isopropyl-N′-(((R)-3-methyl-1,2,3,5,6,7-hexahydrodicyclopenta[b,e]pyridin-8-yl)carbamoyl)-1H-pyrazole-3-sulfonimidamide]

pIC50 [1]: 4.52 to 5.30
SMILES: CC(C)(O)c1cc(F)c(S(N)(=O)=NC(=O)Nc2c3c(nc(C(F)(F)F)c2C2CC2)CCC3)s1 (single isomer, unassigned) [Example 660, (S) or (R)-N′-((3-cyclopropyl-2-(trifluoromethyl)-6,7-dihydro-5H-cyclopenta[b]pyridin-4-yl)carbamoyl)-3-fluoro-5-(2-hydroxypropan-2-yl) thiophene-2-sulfonimidamide]
